Our source for the MIC values is ChEMBL document CHEMBL1828536, “The impact of fatty acids on the antibacterial properties of N-thiolated β-lactams” (2011).

Converted amounts (≈) assume the structure as drawn.

Holding throughout (assay type): functional
The subject of assay [1] is Staphylococcus aureus. The assay is described as follows: Antimicrobial activity against methicillin-resistant Staphylococcus aureus using tryptone soy broth in presence of oleic acid.
The subject of assay [2] is Staphylococcus aureus. The assay is described as follows: Antimicrobial activity against methicillin-resistant Staphylococcus aureus using tryptone soy broth in presence of tween-80.
The subject of assay [3] is Staphylococcus aureus. The assay is described as follows: Antimicrobial activity against methicillin-resistant Staphylococcus aureus using tryptone soy broth.
In assay [4] the test system is Staphylococcus aureus. The assay is described as follows: Antimicrobial activity against methicillin-resistant Staphylococcus aureus using tryptone soy broth in presence of bovine serum albumin.

In general, MIC refers to the smallest concentration in the dilution series that meets the test's criterion for growth inhibition. For `CCC(C)SN1C(=O)[C@H](OC)[C@@H]1c1ccccc1Cl` (some centres not stated), the MIC in assay [1] came out at 2000 µg/mL; in assay [2], 3000 µg/mL; in assay [3], 1000 µg/mL (≈ 3340 µM).

With `Oc1cc(Cl)ccc1Oc1ccc(Cl)cc1Cl` [TRICLOSAN], the MIC in assay [1] is 2000 µg/mL; in assay [2] it was above 10000 µg/mL; in assay [3], 20 µg/mL (≈ 69.1 µM); in assay [4], 20 µg/mL.
